{"source": "patent US20080221033A1", "about": "“Monitoring of Cardiac Natriuretic Peptides During Diagnosis, Management, and Treatment of Cardiac Diseases” (Koninklijke Philips Electronics N. V., priority 2005, published 2008)", "origin": "cited, not measured here", "molecules": {"B1": {"name": "N-terminal pro-BNP (protein, UniProt P16860 27-102, looked up)", "NT-proBNP": "HPLGSPGSASDLETSGLQEQRNHLQGKLSELQVEQTSLEPLQESPRPTGVWKSREVATEGIRGHRKMVLYTLRAPR", "modifications": "NT-proBNP"}}, "key": {"[1]": {"test_system": "patients hospitalized with congestive heart failure"}, "[2]": {"conditions": "patients hospitalized with congestive heart failure"}}, "note": "Where two headings read alike, the source gives them in different places.", "data": [{"molecule": "nesiritide", "values": [{"measurement": "effectiveness versus parenteral vasodilators and inotropic agents", "setting": "[1]; decompensated heart failure, vs nitroprusside, nitroglycerin, dobutamine, milrinone", "value": "more effective"}, {"measurement": "onset of action", "setting": "[1]; human, in vivo", "value": 15, "unit": "min"}, {"measurement": "tolerability versus parenteral vasodilators and inotropic agents", "setting": "[1]; human, in vivo", "value": "better tolerated"}, {"measurement": "pulmonary arterial pressure", "setting": "[1]; [2]", "value": "reduces"}, {"measurement": "pulmonary capillary wedge pressure", "setting": "[1]; [2]", "value": "reduces"}, {"measurement": "right atrial pressure", "setting": "[1]; [2]", "value": "reduces"}, {"measurement": "systemic vascular resistance", "setting": "[1]; [2]", "value": "reduces"}, {"measurement": "onset of therapeutic action", "setting": "[1]; typical cardiac patients", "value": "about 15 minutes"}]}, {"molecule": "brain natriuretic peptide [BNP]", "values": [{"measurement": "terminal half-life in the bloodstream (in words)", "setting": "in vivo", "value": "a few minutes to a few hours"}]}, {"molecule": "B1", "values": [{"measurement": "terminal half-life in the bloodstream (in words)", "setting": "bloodstream, 'believed to be'", "value": "about a month or longer"}]}]}
